Measurements reported in US10316020B2, “Indane derivatives and the use thereof as soluble guanylate cyclase activators” (NOVARTIS AG, priority 2015, dated 2019).

What follows are molecules tested against T1, soluble guanylate cyclase (GUCYA3/GUCYB3) overexpressed in CHO cells (Homo sapiens, UniProt Q02108+Q02153) (assay: CHO cellular assay (cGMP production, HTRF)). Conditions: CHO GUCY clone 8E10; assay buffer with 1 mM IBMX, 20 uM ODQ; 1 h at room temperature; cGMP HTRF; quantification limit 0.0005 μM; read-out: Mean EC50.
T1 construct: expressed in transfected cells
T1 sequence (Q02108 1-690 partner): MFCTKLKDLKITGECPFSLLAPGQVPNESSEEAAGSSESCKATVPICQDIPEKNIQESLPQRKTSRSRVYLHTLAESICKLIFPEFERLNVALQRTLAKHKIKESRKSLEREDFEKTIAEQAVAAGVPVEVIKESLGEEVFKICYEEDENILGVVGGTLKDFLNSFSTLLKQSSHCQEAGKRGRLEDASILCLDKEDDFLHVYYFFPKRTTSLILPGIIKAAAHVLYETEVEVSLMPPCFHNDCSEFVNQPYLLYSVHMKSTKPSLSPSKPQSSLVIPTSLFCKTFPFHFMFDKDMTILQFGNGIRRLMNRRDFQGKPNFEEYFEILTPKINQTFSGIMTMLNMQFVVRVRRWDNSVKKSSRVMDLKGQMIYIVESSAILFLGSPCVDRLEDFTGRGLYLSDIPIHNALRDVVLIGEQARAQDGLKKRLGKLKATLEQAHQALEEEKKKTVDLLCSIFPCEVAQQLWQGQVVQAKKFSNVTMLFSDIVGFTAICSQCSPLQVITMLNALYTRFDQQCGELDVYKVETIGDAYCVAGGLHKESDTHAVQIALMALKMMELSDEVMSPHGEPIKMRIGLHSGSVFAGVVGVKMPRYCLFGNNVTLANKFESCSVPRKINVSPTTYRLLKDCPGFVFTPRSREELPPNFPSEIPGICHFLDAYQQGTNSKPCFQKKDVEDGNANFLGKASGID
T1 sequence (Q02153 1-619): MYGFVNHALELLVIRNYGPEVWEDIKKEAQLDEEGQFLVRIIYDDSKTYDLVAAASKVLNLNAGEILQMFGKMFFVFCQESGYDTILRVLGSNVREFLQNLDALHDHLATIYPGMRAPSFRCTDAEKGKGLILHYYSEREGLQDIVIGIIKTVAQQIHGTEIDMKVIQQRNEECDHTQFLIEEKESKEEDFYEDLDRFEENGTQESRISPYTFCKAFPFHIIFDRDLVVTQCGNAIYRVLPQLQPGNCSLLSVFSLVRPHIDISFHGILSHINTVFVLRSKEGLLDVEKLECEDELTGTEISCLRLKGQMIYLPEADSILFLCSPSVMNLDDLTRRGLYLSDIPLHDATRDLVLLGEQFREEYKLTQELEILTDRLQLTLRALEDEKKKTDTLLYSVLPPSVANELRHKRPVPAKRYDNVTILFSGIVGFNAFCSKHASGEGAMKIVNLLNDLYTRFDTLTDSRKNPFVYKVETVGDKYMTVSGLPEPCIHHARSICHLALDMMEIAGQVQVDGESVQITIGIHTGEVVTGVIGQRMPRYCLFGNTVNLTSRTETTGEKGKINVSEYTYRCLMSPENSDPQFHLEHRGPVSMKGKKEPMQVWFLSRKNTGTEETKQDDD
Type: cell-based
From the text: Chinese hamster ovary (CHO) cells overexpressing soluble guanylate cyclase were generated to test the effect of sGC activators in a cellular context. Human cDNAs for GUCYA3 (RefSeq: NM_000856.3) and GUCYB3 (RefSeq: NM_000857.1) were amplified by PCR from a HUVEC (Human Umbilical Vein Endothelial Cells) cDNA library and cloned into mammalian expression vectors. CHO K1 cells (ATCC CCL-61) were transfected using Lipofectamine 2000 following manufacturer's instructions and stably expressing clones were identified by antibiotic selection. CHO GUCY clone 8E10 was used for subsequent experiments.
Cells were seeded at a density of 3000 cells/well in white 384-well proxyplates (Perkin Elmer) and incubated overnight, then the medium was removed and cells were washed with assay buffer (HBSS, 0.1% BSA, 1 mM IBMX, 20 uM ODQ). sGC activators were serially diluted in DMSO, then diluted in assay buffer prior to adding to cells (10 ul/well, final DMSO concentration 0.5%). Cells were incubated with compounds for 1 h at room temperature, then assayed for cGMP production using Cisbio cGMP HTRF kit (62GM2PEC) according to manufacturer's instructions.
The EC50s are calculated based on the amount of cGMP interpolated from the standard curve, using a 4-parameter sigmoidal dose-response.
Compounds of invention are active on sGC activation. Data in Table 1 collected using the assay of Biological Example 1.

| Structure (SMILES) | EC50 [nM] |
| --- | --- |
| CCc1nc(NC2CCc3cccc(-c4cccc(-n5ncc(C(=O)O)c5OC)n4)c32)ccc1C1=CCN(C(=O)C2CC2)CC1 (single isomer, unassigned; (-)) [Example 16B, (−)-1-(6-(3-((1′-(Cyclopropanecarbonyl)-2-ethyl-1′,2′,3′,6′-tetrahydro-[3,4′-bipyridin]-6-yl)amino)-2,3-dihydro-1H-inden-4-yl)pyridin-2-yl)-5-methoxy-1H-pyrazole-4-carboxylic acid] | 279 |
| CCc1cc(NC2CCc3cccc(-c4cccc(-n5ncc(C(=O)O)c5N)n4)c32)ccc1C1CCN(C(=O)C2CC2)CC1 (single isomer, unassigned; (-)) [Example 18B, (−)-5-Amino-1-(6-(3-((4-(1-(cyclopropanecarbonyl)piperidin-4-yl)-3-ethylphenyl)amino)-2,3-dihydro-1H-inden-4-yl)pyridin-2-yl)-1H-pyrazole-4-carboxylic acid] | 31 |
| CCc1nc(NC2CCc3cccc(-c4cccc(-n5ncc(C(=O)O)c5NC)c4)c32)ccc1C1=CCN(C(=O)C2CC2)CC1 (single isomer, unassigned; (-)) [Example 22B, (−)-1-(3-(3-((1′-(Cyclopropanecarbonyl)-2-ethyl-1′,2′,3′,6′-tetrahydro-[3,4′-bipyridin]-6-yl)amino)-2,3-dihydro-1H-inden-4-yl)phenyl)-5-(methylamino)-1H-pyrazole-4-carboxylic acid] | 40.4 |
| CCc1cc(NC2CCc3cccc(-c4cccc(-n5ncc(C(=O)O)c5NC)c4)c32)ccc1C1CCN(C(=O)C2CC2)CC1 (single isomer, unassigned; enantiomer-1) [Example 12A, (enantiomer-1)-1-(3-(3-((4-(1-(Cyclopropanecarbonyl)piperidin-4-yl)-3-ethylphenyl)amino)-2,3-dihydro-1H-inden-4-yl)phenyl)-5-(methylamino)-1H-pyrazole-4-carboxylic acid] | 53 |
| CCc1cc(NC2CCc3cccc(-c4cccc(-n5ncc(C(=O)O)c5NC)c4)c32)ccc1C1CCN(C(=O)C2CC2)CC1 (single isomer, unassigned; enantiomer-2) [Example 12B, (enantiomer-2)-1-(3-(3-((4-(1-(Cyclopropanecarbonyl)piperidin-4-yl)-3-ethylphenyl)amino)-2,3-dihydro-1H-inden-4-yl)phenyl)-5-(methylamino)-1H-pyrazole-4-carboxylic acid] | < 0.5 |
| CCc1cc(N[C@@H]2CCc3cccc(-c4cccc(-n5ncc(C(=O)O)c5OC)c4)c32)ccc1C1CCN(C(=O)C2CC2)CC1 [Example 3B, (−)-(R)-1-(3-(3-((4-(1-(Cyclopropanecarbonyl)piperidin-4-yl)-3-ethylphenyl)amino)-2,3-dihydro-1H-inden-4-yl)phenyl)-5-methoxy-1H-pyrazole-4-carboxylic acid] | 29 |
| CCc1cc(C[C@H]2CCc3cccc(-c4cccc(-n5ncc(C(=O)O)c5OC)n4)c32)ccc1C1CCN(C(=O)C2CC2)CC1 [Example 13, (+)-(R)-1-(6-(3-(4-(1-(Cyclopropanecarbonyl)piperidin-4-yl)-3-ethylbenzyl)-2,3-dihydro-1H-inden-4-yl)pyridin-2-yl)-5-methoxy-1H-pyrazole-4-carboxylic acid] | < 0.5 |
| CCc1cc(O[C@H]2CCc3cccc(-c4cccc(-n5ncc(C(=O)O)c5OC)n4)c32)ccc1C1CCN(C(=O)C2CC2)CC1 [Example 14, (S)-1-(6-(3-(4-(1-(Cyclopropanecarbonyl)piperidin-4-yl)-3-ethylphenoxy)-2,3-dihydro-1H-inden-4-yl)pyridin-2-yl)-5-methoxy-1H-pyrazole-4-carboxylic acid] | < 0.5 |
| CCc1cc(O[C@H]2CCc3cccc(-c4cccc(-n5ncc(C(=O)O)c5OC)n4)c32)ccc1C1CCN(C(=O)[C@H](C)O)CC1 [Example 15, 1-(6-((S)-3-(3-Ethyl-4-(1-((S)-2-hydroxypropanoyl)piperidin-4-yl)phenoxy)-2,3-dihydro-1H-inden-4-yl)pyridin-2-yl)-5-methoxy-1H-pyrazole-4-carboxylic acid] | 1 |
| CCc1cc(O[C@H]2CCc3cccc(-c4cccc(-n5ncc(C(=O)O)c5N)n4)c32)ccc1C1CCN(C(=O)C2CC2)CC1 [Example 19, (S)-5-Amino-1-(6-(3-(4-(1-(cyclopropanecarbonyl)piperidin-4-yl)-3-ethylphenoxy)-2,3-dihydro-1H-inden-4-yl)pyridin-2-yl)-1H-pyrazole-4-carboxylic acid] | 3 |
| CCc1cc(C[C@H]2CCc3cccc(-c4cccc(-n5ncc(C(=O)O)c5N)n4)c32)ccc1C1CCN(C(=O)C2CC2)CC1 [Example 23, (R)-5-Amino-1-(6-(3-(4-(1-(cyclopropanecarbonyl)piperidin-4-yl)-3-ethylbenzyl)-2,3-dihydro-1H-inden-4-yl)pyridin-2-yl)-1H-pyrazole-4-carboxylic acid] | < 0.5 |

Continued, values first:

| EC50 [nM] | Structure (SMILES) |
| --- | --- |
| 16 | CCc1cc(C[C@@H]2CCc3cccc(-c4cccc(-n5ncc(C(=O)O)c5OC)c4)c32)ccc1C1CCN(C(=O)C2CC2)CC1 [Example 1B, (−)-(S)-1-(3-(3-(4-(1-(Cyclopropanecarbonyl)piperidin-4-yl)-3-ethylbenzyl)-2,3-dihydro-1H-inden-4-yl)phenyl)-5-methoxy-1H-pyrazole-4-carboxylic acid] |
| < 0.5 | CCc1cc(C[C@H]2CCc3cccc(-c4cccc(-n5ncc(C(=O)O)c5OC)c4)c32)ccc1C1CCN(C(=O)[C@H](C)O)CC1 [Example 2A, (+)-1-(3-((R)-3-(3-Ethyl-4-(1-((S)-2-hydroxypropanoyl)piperidin-4-yl)benzyl)-2,3-dihydro-1H-inden-4-yl)phenyl)-5-methoxy-1H-pyrazole-4-carboxylic acid] |
| 34 | CCc1cc(C[C@@H]2CCc3cccc(-c4cccc(-n5ncc(C(=O)O)c5OC)c4)c32)ccc1C1CCN(C(=O)[C@H](C)O)CC1 [Example 2B, (−)-1-(3-((S)-3-(3-Ethyl-4-(1-((S)-2-hydroxypropanoyl)piperidin-4-yl)benzyl)-2,3-dihydro-1H-inden-4-yl)phenyl)-5-methoxy-1H-pyrazole-4-carboxylic acid] |
| < 0.5 | CCc1cc(O[C@H]2CCc3cccc(-c4cccc(-n5ncc(C(=O)O)c5OC)c4)c32)ccc1C1CCN(C(=O)[C@H](C)O)CC1 [Example 6, 1-(3-((S)-3-(3-Ethyl-4-(1-((S)-2-hydroxypropanoyl)piperidin-4-yl)phenoxy)-2,3-dihydro-1H-inden-4-yl)phenyl)-5-methoxy-1H-pyrazole-4-carboxylic acid] |
| < 0.5 | CCc1cc(C[C@H]2CCc3cccc(-c4cccc(-n5ncc(C(=O)O)c5N)c4)c32)ccc1C1CCN(C(=O)C2CC2)CC1 [Example 20, (+)-(R)-5-Amino-1-(3-(3-(4-(1-(cyclopropanecarbonyl)piperidin-4-yl)-3-ethylbenzyl)-2,3-dihydro-1H-inden-4-yl)phenyl)-1H-pyrazole-4-carboxylic acid] |
| < 0.5 | CCc1cc(C[C@H]2CCc3cccc(-c4cccc(-n5ncc(C(=O)O)c5NC)c4)c32)ccc1C1CCN(C(=O)C2CC2)CC1 [Example 21, (R)-1-(3-(3-(4-(1-(cyclopropanecarbonyl)piperidin-4-yl)-3-ethylbenzyl)-2,3-dihydro-1H-inden-4-yl)phenyl)-5-(methylamino)-1H-pyrazole-4-carboxylic acid] |
